Converted amounts (≈) assume the structure as drawn.

Consider 13 molecules from patent US5158942A, “Process of using phospholipid derivatives to inhibit multiplication of the human immunodeficiency virus” (Boehringer Mannheim GmbH, priority 1989, dated 1992).

For data set [1] the following is noted: M. S. Hirsch, J. Infect. Dis., 157, 427-431/1988; cited from earlier work.
For a further data set, the system named is HIV. Kind of data set: Inhibition of HIV replication in HIV infected human T-lymphoma cells or human fetal lung cells; amount of virus determined by new infection of human fetal lung cells. The format is cell-based. As to conditions: Human immunodeficiency virus 1, readout: new infection of human fetal lung cells, read-out: IC50-value (concentration which results in an inhibition of the replication of 50%). How it is done: HIV infected human T-lymphoma cells or human fetal lung cells were treated with the inventive compound by using different concentration ranges of the test compound. The amount of the viruses was then determined by way of new infection of human fetal lung cells. The decrease of the resulting positive HIV-infected cells was regarded as a measure for the antiviral activity of the compound tested.
The following table gives the corresponding concentration, which results in an inhibition of the replication of 50% (IC50 -value): […]

For `Cc1cn([C@H]2C[C@H](N=[N+]=[N-])[C@@H](CO)O2)c(=O)[nH]c1=O` [AZT, 3'-azido-3'deoxythymidine], in data set [1], the “toxicities in the therapeutic range” value is reported as “very severe toxicities occurring even in the therapeutic range”. For `CCCCCCCCCCCCOC(COP(=O)([O-])OCC[N+](C)(C)C)CSCCCCCCCCCCCC` (stereo not shown) [Example 4, 3-Dodecylmercapto-2-dodecyloxypropyl-1-phosphoric acid monocholine ester], in the data set on HIV, the IC50 was 4 µg/mL (≈ 6.56 µM). Still for that read-out and setting: the figure for `CCCCCCCCCCCCCCCCSCC(COP(=O)([O-])OCC[N+](C)(C)C)OCCCCCCCCCC` (stereo not shown) [Example 5, 3-Hexadecylmercapto-2-decyloxypropyl-1-phosphoric acid monocholine ester] is 20 µg/mL (≈ 31.3 µM); for `CCCCCCCCCCCCCCCCOC(COP(=O)([O-])OCC[N+](C)(C)C)CSCCCCCCCCCC` (stereo not shown) [Example 6, 3-Decylmercapto-2-hexadecyloxypropyl-1-phosphoric acid monocholine ester] it is 50 µg/mL (≈ 78.4 µM); for `CCCCCCCCCCCCS(=O)(=O)CC(COP(=O)([O-])OCC[N+](C)(C)C)OCCCCCCCCCC` (stereo not shown) [Example 8, 3-Dodecylsulphonyl-2-decyloxypropyl-1-phosphoric acid monocholine ester] it is 2 µg/mL (≈ 3.26 µM). Still for that read-out and setting: the figure for `CCCCCCCCCCCCOC(COP(=O)([O-])OCC[N+](C)(C)C)CS(=O)(=O)CCCCCCCCCC` (stereo not shown) [Example 9, 3-Decylsulphonyl-2-dodecyloxypropyl-1-phosphoric acid monocholine ester] is 2 µg/mL (≈ 3.26 µM). Still for that read-out and setting: the value for `CCCCCCCCCCCSCC(COP(=O)([O-])OCC[N+](C)(C)C)OCCCCCCCCCC` (stereo not shown) [Example 11, 3-Undecylmercapto-2-decyloxypropyl-1-phosphoric acid monocholine ester] was 20 µg/mL (≈ 35.2 µM); that for `CCCCCCCCCCCCCCSCC(COP(=O)([O-])OCC[N+](C)(C)C)OCCCCCCCCCC` (stereo not shown) [Example 13, 3-Tetradecylmercapto-2-decyloxypropyl-1-phosphoric acid monocholine ester] was 4 µg/mL (≈ 6.56 µM); that for `CCCCCCCCCCCCSCC(CSCCCCCCCCCCCC)OP(=O)([O-])OCC[N+](C)(C)C` [Example 20, 1,3-Bis-(dodecylmercapto)-propyl-1-phosphoric acid monocholine ester] was 4 µg/mL (≈ 6.39 µM). `CCCCCCCCCCCCSCC(COP(=O)([O-])OCC[N+](C)(C)C)NC(=O)CCCCCCCCCC` (stereo not shown) [Example 21, 3-Dodecylmercapto-2-decylcarbonylaminopropyl-1-phosphoric acid monocholine ester]: the IC50 in the data set on HIV stood at 5 µg/mL (≈ 8.21 µM). Same read-out and setting: the figure for `CCCCCCCCCCCC[S+]([O-])CC(COP(=O)([O-])OCC[N+](C)(C)C)OCCCCCCCCCC` (stereo not shown) [Example 22, 3-Dodecylsulphinyl-2-decyloxypropyl-1-phosphoric acid monocholine ester] is 4 µg/mL (≈ 6.69 µM). The same measure, in the same setting: the value for `CCCCCCCCCCCOC(COP(=O)([O-])OCC[N+](C)(C)C)C[S+]([O-])CCCCCCCCCCC` (stereo not shown) [Example 24, 3-Undecylsulphinyl-2-undecyloxypropyl-1-phosphoric acid monocholine ester] was 4 µg/mL (≈ 6.69 µM); that for `CCCCCCCCCCCCC[S+]([O-])CC(COP(=O)([O-])OCC[N+](C)(C)C)OCCCCCCCCCC` (stereo not shown) [Example 25, 3-Tridecylsulphinyl-2-decyloxypropyl-1-phosphoric acid monocholine ester] was 2 µg/mL (≈ 3.27 µM).
